# Measured values taken from patent US9861685B2, “Methods of treating hemoglobinopathies” (Duke University, priority 2012, dated 2018).
# Assays:
# [1] = tested on: SS RBCs co-incubated with polymorphonuclear cells (PMNs); settings: previously shown; SS RBCs co-incubated with naive PMNs; cited from earlier work
# β-arrestin1/2 [2] = assay: Western blot of SS RBC membrane ghosts for β-arrestin1/2 and phosphorylated β-arrestin1
# cAMP = settings: SS RBCs
# β-arrestin1/2 [3] = assay type: cell-based, human
# [4] = tested on: human SS RBC adhesion to vascular endothelium and vaso-occlusion; assay: Intravital microscopy of ex vivo treated human SS RBCs infused into nude mice (window chamber); assay type: in vivo; settings: nude mice n=2; SS RBCs treated ex vivo with 20 nM epinephrine 1 min
# Experimental: For some in vivo adhesion studies, packed SS RBCs were fluorescently labeled with the dye Dil (Molecular Probes Inc., Eugene, Oreg.), following the manufacturer's instructions, prior to cell treatment. Dil has been used in previous in vivo studies, and this dye has no effect on RBC suspension viscosity and RBC survival in circulation.^30 Cell morphology was checked by microscopy.
# All animal experiments were carried out in accordance with protocols approved by the Duke University Animal Care and Use Committee. Female athymic homozygous nude mice (nu-/nu-) were between 8-12 weeks of age (Charles River Laboratories, Wilmington, Mass.).
# General anesthesia was achieved by intra-peritoneal injection of 100 mg/kg of ketamine (Abbott Laboratory, Chicago, Ill.) and 10 mg/kg of xylazine (Bayer, Shawnee Mission, Kans.). […]
# Animals were infused with washed SS RBCs (300 μl hematocrit (Hct) 50% in saline) treated with epinephrine at 20 nM for 1 min or 5 μM βARK1 for 1 hour followed by treatment with 20 nM epinephrine for 1 min. […] Microcirculatory events and cell adhesion were simultaneously recorded using a Trinitron Color video monitor (PVM-1353 MD, Sony) and JVC videocassette recorder (BR-S3784, VCR King, Durham, N.C.) connected to a digital video camera C2400 (Hamamatsu Photonics K.K., Japan). […]
# ERK1/2 = settings: see WO 2012/149547; cited from earlier work
# ERK [5] = settings: cited from earlier work
# GRK2 = biological target: T1, GRK2 (Homo sapiens, UniProt P25098); assay: Western blot of SS RBC membrane ghosts for total and phosphorylated GRK2
# T1 sequence (P25098 1-689): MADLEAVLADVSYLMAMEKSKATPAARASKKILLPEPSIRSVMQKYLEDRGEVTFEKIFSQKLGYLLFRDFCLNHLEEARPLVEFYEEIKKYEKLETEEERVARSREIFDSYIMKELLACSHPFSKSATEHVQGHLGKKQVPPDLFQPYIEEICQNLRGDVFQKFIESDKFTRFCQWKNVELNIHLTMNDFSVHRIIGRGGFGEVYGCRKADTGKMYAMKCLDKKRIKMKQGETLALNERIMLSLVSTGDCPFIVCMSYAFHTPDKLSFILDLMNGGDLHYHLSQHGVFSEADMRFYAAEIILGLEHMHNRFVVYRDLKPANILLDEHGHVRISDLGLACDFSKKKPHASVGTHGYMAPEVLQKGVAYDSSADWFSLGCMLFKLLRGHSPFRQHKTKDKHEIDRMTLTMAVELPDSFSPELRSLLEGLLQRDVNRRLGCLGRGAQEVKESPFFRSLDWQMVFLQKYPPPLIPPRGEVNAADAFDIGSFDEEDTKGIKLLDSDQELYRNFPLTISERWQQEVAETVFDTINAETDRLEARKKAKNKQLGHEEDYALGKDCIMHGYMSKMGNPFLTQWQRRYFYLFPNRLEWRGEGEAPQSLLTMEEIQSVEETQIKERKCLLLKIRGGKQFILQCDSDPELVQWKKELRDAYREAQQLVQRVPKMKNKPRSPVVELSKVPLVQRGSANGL
# ERK [6] = assay type: cell-based, human
structure (smiles),measurement,setting,value
COc1cc(F)c(F)c(Nc2ccc(I)cc2F)c1NS(=O)(=O)C1(C[C@H](O)CO)CC1 [RDEA119],ability of SS RBCs to promote PMN adhesion to ECs,[1],decreased
Cn1cnc2c(F)c(Nc3ccc(Br)cc3Cl)c(C(=O)NOCCO)cc21 [AZD6244],ability of SS RBCs to promote PMN adhesion to ECs,[1],decreased
"CNC[C@H](O)c1ccc(O)c(O)c1 [Epi, epinephrine]",β-arrestin1/2 membrane-recruitment (translocation),β-arrestin1/2 [2],enhanced
same,β-arrestin1 phosphorylation,β-arrestin1/2 [2],enhanced
same,SCD patient samples tested in which cAMP levels increased,cAMP,50%
same,basal phosphorylation of β-arrestin1,β-arrestin1/2 [3],failed to increase
same,membrane-recruitment of β-arrestin1/2,β-arrestin1/2 [3],failed to increase
same,SS RBC adhesion in inflamed venules,[4],marked adhesion
same,vaso-occlusion (occlusion of vessels),[4],induced occlusion
same,ERK phosphorylation/activation in normal RBCs,ERK1/2,fails to become phosphorylated/activated
same,ERK phosphorylation,ERK [5],enhanced
CC(=O)Nc1cccc(-n2c(=O)n(C3CC3)c(=O)c3c(Nc4ccc(I)cc4F)n(C)c(=O)c(C)c32)c1 [GSK1120212],ability of SS RBCs to promote PMN adhesion to ECs,[1],decreased
N#CC(=C(/N)Sc1ccccc1N)/C(C#N)=C(\N)Sc1ccccc1N [U0126],effect on CT-induced GRK2 membrane-translocation,GRK2,significantly abrogated
same,effect on CT-induced GRK2 phosphorylation,GRK2,significantly abrogated
same,effect on PTx-induced GRK2 membrane-translocation,GRK2,significantly abrogated
same,effect on PTx-induced GRK2 phosphorylation,GRK2,significantly abrogated
same,effect on CT-induced β-arrestin1/2 membrane-translocation,β-arrestin1/2 [2],significantly inhibited
same,effect on PTx-induced β-arrestin1/2 recruitment to the membrane,β-arrestin1/2 [2],failed to have an effect
same,effect on levels of β-arrestin1 phosphorylation (CT-treated),β-arrestin1/2 [2],decreased
same,ability of SS RBCs to promote PMN adhesion to ECs,[1],decreased
same,effect on CT-increased ERK phosphorylation,ERK [6],inhibited
